The values below are quoted from earlier work in paper PMC9510668 (Frontiers in Pharmacology, 2022).

One may read the Km as the concentration of substrate that gives half-maximal velocity. As usually defined, the Ki is a dissociation constant, usually derived from enzyme kinetics or from competition with a known ligand.

Converted amounts (≈) assume the structure as drawn. Where two headings read alike, the source gives them in different places.

For series [1] the following is noted: cited from earlier work.
The conditions of series [2]: cited from earlier work. The source holds these as a separate data set.
A further series relates to UGT1A1. Further details: method as in ref [2] (a number printed in a supplementary file, which may have a reference list of its own: not looked up in the article's list). The settings on record: ref [2]; cited from earlier work.
The conditions of series [3]: healthy human, mean, cited from earlier work.
For series [4], the system named is CYP3A4. The settings on record: read-out: Ki CYP3A4; ketoconazole; ref [1]; cited from earlier work.
The target in another series is BCRP1. Further details: method as in ref [8] (a number printed in a supplementary file, which may have a reference list of its own: not looked up in the article's list). The settings on record: lapatinib; ref [8]; cited from earlier work.
Series [5] relates to CYP3A4. Further details: method as in ref [6] (a number printed in a supplementary file, which may have a reference list of its own: not looked up in the article's list). The settings on record: ref [6]; cited from earlier work.
A further series has as its system P-gp. Conditions: lapatinib; ref [8]; cited from earlier work.
The next series concerns CYP3A5. Further details: method as in ref [6] (a number printed in a supplementary file, which may have a reference list of its own: not looked up in the article's list). Conditions: ref [6]; cited from earlier work.
The next series relates to OATP1B1. Conditions: lapatinib; ref [8]; cited from earlier work.
For series [6] the following is noted: human; ref Heath et al., 2010; cited from earlier work.
Another series concerns VEGFR. Conditions: ref Heath et al., 2010; cited from earlier work.
On the set-up of series [7]: method as in Röhss and Hedenström, 2002. The settings on record: 40 mg OD orally for 5 days; ref Röhss and Hedenström, 2002; cited from earlier work.

With `CC(=O)N1CCN(c2ccc(OCC3COC(Cn4ccnc4)(c4ccc(Cl)cc4Cl)O3)cc2)CC1` (stereo not drawn) [ketoconazole], in series [1] (ketoconazole, ref [1]), the Rbp is listed as 0.59 and the fup was […]. Further, the Solubility in buffer in [2] (@pH6.5, ref [1]) is 6.93 µg/mL (≈ 13 µM). The “Log (@pH7.4), lipophilicity” value in series [2] (pH7.4, ref [1]) is 2.67. In the series on UGT1A1, the Michaelis constant (Km) was 22.3 µM and the “UGT1A1 Vmax” value was 9.37 pmol/min/pmol. For the same compound, in series [3] (ketoconazole), the “AUC0-48, Observed” value was […]; the “Cmax, Observed” value is […]; the Tmax, Observed was […]. Besides, the inhibition constant (Ki) in the series on CYP3A4 [4] was […].

In the case of `CS(=O)(=O)CCNCc1ccc(-c2ccc3ncnc(Nc4ccc(OCc5cccc(F)c5)c(Cl)c4)c3c2)o1` [lapatinib], the fup in series [1] (lapatinib, ref [4]) is 0.01. Moreover, the Rbp in series [1] (lapatinib, ref [5]) is on record as 0.84. Further, the “Water Solubility in FaSSIF pH=6.5” value in series [2] (ref [3]) is recorded as 5.4 μg/mL. On BCRP1, the Ki is 25 nM. Also, in the series with CYP3A4 [5], the “CPY3A4 CLint” value is 105 µL/min/nmol. Also, in series [3] (lapatinib), the “AUC0-48, Observed” value is 5328.9 ng·h/mL; the “Cmax, Observed” value was 311.0 ng/mL; the Tmax, Observed was 3 h. The Ki in the series with P-gp is 3900 nM. The “CPY3A5 CLint” value in the series on CYP3A5 was 5 µL/min/nmol. For the same compound, the Ki with OATP1B1 is 4000 nM.

In the case of `Cc1c2ccc(N(C)c3ccnc(Nc4ccc(CO)c(S(N)(=O)=O)c4)n3)cc2nn1C` [GSK1268997], the “Systemic exposure relative to unchanged PAZ” value in series [6] is given as “about 2%”. Moreover, the “Potency towards VEGFR in comparison to PAZ” value with VEGFR is reported as “equal potency”.

Regarding `COc1ccc2nc([S@@+]([O-])Cc3ncc(C)c(OC)c3C)[nH]c2c1` [esomeprazole], the “Human intragastric mean 24-h pH” value in [7] was 4.78.
